Measured values: patent US9434734B2, “Substituted pyrazoloquinazolinones and pyrroloquinazolinones as allosteric modulators of group II metabotropic glutamate receptors” (Domain Therapeutics, priority 2012, dated 2016)
pIC50: −log10 of the molar value. Where two headings read alike, the source gives them in different places.

How the values were obtained:
[1] = biological target: T1, human mGluR2 (hmGluR2) transiently over-expressed in HEK-293 cells (Homo sapiens, UniProt Q14416); assay: Human mGluR2 negative allosteric modulator evaluation using Ca++ functional assay (agonist and NAM activity); type: cell-based
T1 construct: expressed in transfected cells; host or cells: HEK-293 cells, transient co-transfection by electroporation
Procedure, shortened: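 Compound alone (agonist mode) was followed on the same plate by EC80 glutamate (NAM mode), with fluorescence read 60 s. Eight-point curves, variable-slope fit, duplicate, two independent runs.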

human mGluR3 (hmGluR3) = human mGluR3 (hmGluR3) (Homo sapiens, UniProt Q14832); assay: mGluR3 negative allosteric modulator activity; type: cell-based
[2] = hmGluR2 in HEK-293 cells, EC80 glutamate, Fluo4AM calcium readout, read-out: mGluR2 negative allosteric modulator activity IC50

T1 sequence (Q14416 19-872): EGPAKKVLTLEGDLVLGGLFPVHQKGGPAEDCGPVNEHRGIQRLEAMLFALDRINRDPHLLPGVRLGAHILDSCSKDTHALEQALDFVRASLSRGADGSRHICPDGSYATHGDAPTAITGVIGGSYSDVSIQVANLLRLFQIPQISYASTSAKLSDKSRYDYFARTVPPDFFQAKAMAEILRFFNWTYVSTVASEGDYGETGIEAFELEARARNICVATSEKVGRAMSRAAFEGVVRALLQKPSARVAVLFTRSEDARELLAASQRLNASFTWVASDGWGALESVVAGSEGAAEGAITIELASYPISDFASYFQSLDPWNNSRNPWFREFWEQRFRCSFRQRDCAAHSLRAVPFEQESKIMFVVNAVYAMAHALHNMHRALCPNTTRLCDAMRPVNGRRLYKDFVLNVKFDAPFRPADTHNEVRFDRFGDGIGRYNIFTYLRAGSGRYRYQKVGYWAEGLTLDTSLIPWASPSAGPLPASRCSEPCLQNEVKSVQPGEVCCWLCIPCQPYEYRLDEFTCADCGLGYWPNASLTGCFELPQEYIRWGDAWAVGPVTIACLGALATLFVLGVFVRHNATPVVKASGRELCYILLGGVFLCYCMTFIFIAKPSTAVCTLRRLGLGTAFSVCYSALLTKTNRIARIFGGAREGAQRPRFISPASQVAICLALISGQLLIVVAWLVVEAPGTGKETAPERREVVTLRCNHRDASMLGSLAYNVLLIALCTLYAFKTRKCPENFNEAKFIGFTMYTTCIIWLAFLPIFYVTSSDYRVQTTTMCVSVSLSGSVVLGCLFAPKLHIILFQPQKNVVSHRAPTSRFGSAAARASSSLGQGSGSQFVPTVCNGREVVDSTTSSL
Sequence of human mGluR3 (hmGluR3) (Q14832 23-879): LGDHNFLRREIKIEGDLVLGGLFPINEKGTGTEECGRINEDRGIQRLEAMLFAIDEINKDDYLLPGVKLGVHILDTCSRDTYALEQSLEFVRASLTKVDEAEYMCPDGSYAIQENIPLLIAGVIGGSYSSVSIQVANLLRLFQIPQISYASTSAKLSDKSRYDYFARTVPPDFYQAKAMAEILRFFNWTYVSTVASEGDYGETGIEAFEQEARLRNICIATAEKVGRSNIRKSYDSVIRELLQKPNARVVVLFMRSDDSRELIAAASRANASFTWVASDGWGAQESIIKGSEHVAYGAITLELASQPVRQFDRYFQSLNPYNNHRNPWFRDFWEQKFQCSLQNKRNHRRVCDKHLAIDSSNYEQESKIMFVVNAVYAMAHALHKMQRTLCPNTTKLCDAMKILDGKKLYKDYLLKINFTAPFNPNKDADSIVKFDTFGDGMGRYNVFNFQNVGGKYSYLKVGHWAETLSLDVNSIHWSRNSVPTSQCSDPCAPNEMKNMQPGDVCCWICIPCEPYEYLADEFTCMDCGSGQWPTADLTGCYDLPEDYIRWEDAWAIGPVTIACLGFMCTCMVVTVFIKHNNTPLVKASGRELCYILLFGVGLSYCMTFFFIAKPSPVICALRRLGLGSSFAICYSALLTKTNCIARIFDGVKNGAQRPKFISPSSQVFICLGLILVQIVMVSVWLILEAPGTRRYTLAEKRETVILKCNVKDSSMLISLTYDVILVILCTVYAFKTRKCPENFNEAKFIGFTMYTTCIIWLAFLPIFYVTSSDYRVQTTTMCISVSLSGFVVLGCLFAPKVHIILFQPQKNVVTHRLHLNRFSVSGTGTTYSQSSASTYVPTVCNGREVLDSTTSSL

CCn1c(=O)c2ccc(-c3ccc(N)nc3)cc2n2nc(C3CCCC3)cc12.Cl [Example 69, 8-(6-Amino-pyridin-3-yl)-2-cyclopentyl-4-ethyl-4H-pyrazolo[1,5-a]quinazolin-5-one]
pIC50 [1, 2]: > 6.00 | pIC50 (human mGluR3 (hmGluR3)): > 6.00 | melting point: > 250 °C

Cl.Nc1ccc(-c2ccc3c(=O)n(CC(F)F)c4cc(-c5ccccc5)nn4c3c2)cn1 [Example 46, 8-(6-Amino-pyridin-3-yl)-4-(2,2-difluoro-ethyl)-2-phenyl-4H-pyrazolo[1,5-a]quinazolin-5-one]
pIC50 [1, 2]: > 6.00 | melting point: > 250 °C

CCn1c(=O)c2ccc(-c3ccc(N)nc3)cc2n2nc(-c3ccccc3)cc12.Cl [Example 43, 8-(6-Amino-pyridin-3-yl)-4-ethyl-2-phenyl-4H-pyrazolo[1,5-a]quinazolin-5-one]
pIC50 [1, 2]: > 6.00 | melting point: 207 to 208 °C

Cn1c(=O)c2ccc(-c3cnco3)cc2n2nc(-c3ccccc3)cc12 [Example 21, 4-Methyl-8-oxazol-5-yl-2-phenyl-4H-pyrazolo[1,5-a]quinazolin-5-one]
pIC50 [1, 2]: > 6.00 | melting point: 222 to 225 °C

Cl.Cn1c(=O)c2ccc(-c3ccc(N)nc3)cc2n2nc(C3CCOCC3)cc12 [Example 86, 8-(6-Amino-pyridin-3-yl)-4-methyl-2-(tetrahydro-pyran-4-yl)-4H-pyrazolo[1,5-a]quinazolin-5-one]
pIC50 [1, 2]: > 6.00 | melting point: > 250 °C

CN(C)S(=O)(=O)c1cccc(-c2ccc3c(=O)n(CC4CC4)c4cc(-c5ccccc5)nn4c3c2)c1 [Example 42, 3-(4-Cyclopropylmethyl-5-oxo-2-phenyl-4,5-dihydro-pyrazolo[1,5-a]quinazolin-8-yl)-N,N-dimethyl-benzenesulfonamide]
pIC50 [1, 2]: > 6.00 | melting point: 115 to 119 °C

Cc1ncncc1-c1ccc2c(=O)n(C)c3cc(-c4ccnc(C(F)(F)F)c4)nn3c2c1.Cl [Example 144, 4-Methyl-8-(4-methyl-pyrimidin-5-yl)-2-(2-trifluoromethyl-pyridin-4-yl)-4H-pyrazolo[1,5-a]quinazolin-5-one]
pIC50 [1, 2]: > 6.00 | melting point: > 250 °C

Cn1c(=O)c2ccc(-c3c[nH]nc3C(F)(F)F)cc2n2nc(-c3ccccc3)cc12 [Example 19, 4-Methyl-2-phenyl-8-(3-trifluoromethyl-1H-pyrazol-4-yl)-4H-pyrazolo[1,5-a]quinazolin-5-one]
pIC50 [1, 2]: > 6.00 | melting point: > 250 °C

Cc1nc(N)cnc1-c1ccc2c(=O)n(C)c3cc(-c4ccccc4)nn3c2c1.Cl [Example 32, 8-(5-Amino-3-methyl-pyrazin-2-yl)-4-methyl-2-phenyl-4H-pyrazolo[1,5-a]quinazolin-5-one]
pIC50 [1, 2]: > 6.00 | melting point: 188 to 189 °C

CCc1cc2n(C)c(=O)c3ccc(-c4ccc(N)nc4)cc3n2n1.Cl [Example 49, 8-(6-Amino-pyridin-3-yl)-2-ethyl-4-methyl-4H-pyrazolo[1,5-a]quinazolin-5-one]
pIC50 [1, 2]: > 6.00 | melting point: > 250 °C

Cc1cc(-c2ccc3c(=O)n(C)c4cc(C5CCOCC5)nn4c3c2)cc(C)n1.Cl [Example 97, 8-(2,6-Dimethyl-pyridin-4-yl)-4-methyl-2-(tetrahydro-pyran-4-yl)-4H-pyrazolo[1,5-a]quinazolin-5-one]
pIC50 [1, 2]: > 6.00 | melting point: > 250 °C

CCn1c(=O)c2ccc(-c3cc(C)nc(C)c3)cc2n2nc(C3CCCC3)cc12.Cl [Example 70, 2-Cyclopentyl-8-(2,6-dimethyl-pyridin-4-yl)-4-ethyl-4H-pyrazolo[1,5-a]quinazolin-5-one]
pIC50 [1, 2]: > 6.00 | melting point: > 250 °C

Cc1cc(-c2cc3n(C)c(=O)c4ccc(-c5c(C)n[nH]c5C)cc4n3n2)cc(C)n1.Cl [Example 146, 8-(3,5-Dimethyl-1H-pyrazol-4-yl)-2-(2,6-dimethyl-pyridin-4-yl)-4-methyl-4H-pyrazolo[1,5-a]quinazolin-5-one]
pIC50 [1, 2]: > 6.00 | melting point: > 250 °C

Cn1c(=O)c2ccc(-c3ccc(F)nc3)cc2n2nc(-c3ccnc(C(F)(F)F)c3)cc12 [Example 141, 8-(6-Fluoro-pyridin-3-yl)-4-methyl-2-(2-trifluoromethyl-pyridin-4-yl)-4H-pyrazolo[1,5-a]quinazolin-5-one]
pIC50 [1, 2]: > 6.00 | melting point: > 250 °C

Cc1cc(-c2cc3n(C)c(=O)c4ccc(-c5c[nH]nc5C)cc4n3n2)cc(C)n1.Cl [Example 121, 2-(2,6-Dimethyl-pyridin-4-yl)-4-methyl-8-(3-methyl-1H-pyrazol-4-yl)-4H-pyrazolo[1,5-a]quinazolin-5-one]
pIC50 [1, 2]: > 6.00 | melting point: > 250 °C

Cn1c(=O)c2ccc(-c3cccc(C#N)c3)cc2n2nc(C3CCOCC3)cc12 [Example 88, 3-[4-Methyl-5-oxo-2-(tetrahydro-pyran-4-yl)-4,5-dihydro-pyrazolo[1,5-a]quinazolin-8-yl]-benzonitrile]
pIC50 [1, 2]: > 6.00 | melting point: 210 to 216 °C

Cl.Cn1c(=O)c2ccc(-c3ccc(N)nc3)cc2n2nc(C3CC3)cc12 [Example 63, 8-(6-Amino-pyridin-3-yl)-2-cyclopropyl-4-methyl-4H-pyrazolo[1,5-a]quinazolin-5-one]
pIC50 [1, 2]: > 6.00 | melting point: > 250 °C

Cn1c(=O)c2ccc(-c3ccnc(F)c3)cc2n2nc(-c3ccnc(C(F)(F)F)c3)cc12 [Example 140, 8-(2-Fluoro-pyridin-4-yl)-4-methyl-2-(2-trifluoromethyl-pyridin-4-yl)-4H-pyrazolo[1,5-a]quinazolin-5-one]
pIC50 [1, 2]: > 6.00 | melting point: > 250 °C

Cc1cc(-c2ccc3c(=O)n(C)c4cc(C5CCCCCC5)nn4c3c2)cc(C)n1.Cl [Example 77, 2-Cycloheptyl-8-(2,6-dimethyl-pyridin-4-yl)-4-methyl-4H-pyrazolo[1,5-a]quinazolin-5-one]
pIC50 [1, 2]: > 6.00 | melting point: > 250 °C

CN(C)S(=O)(=O)c1cccc(-c2ccc3c(=O)n(C)c4cc(-c5ccccc5)nn4c3c2)c1 [Example 38, N,N-Dimethyl-3-(4-methyl-5-oxo-2-phenyl-4,5-dihydro-pyrazolo[1,5-a]quinazolin-8-yl)-benzenesulfonamide]
pIC50 ([1]; N-methylated compounds, statement in description, read-out: IC50 for mGluR2): > 7.52 | pIC50 [1, 2]: > 6.00 | melting point: 202 to 204 °C

Cl.Nc1ccc(-c2ccc3c(=O)n(CC(F)(F)F)c4cc(-c5ccccc5)nn4c3c2)cn1 [Example 45, 8-(6-Amino-pyridin-3-yl)-2-phenyl-4-(2,2,2-trifluoro-ethyl)-4H-pyrazolo[1,5-a]quinazolin-5-one]
pIC50 [1, 2]: > 6.00 | melting point: 227 to 230 °C

Cc1cc(-c2cc3n(C)c(=O)c4ccc(-c5cnn(C)c5)cc4n3n2)cc(C)n1.Cl [Example 122, 2-(2,6-Dimethyl-pyridin-4-yl)-4-methyl-8-(1-methyl-1H-pyrazol-4-yl)-4H-pyrazolo[1,5-a]quinazolin-5-one]
pIC50 [1, 2]: > 6.00 | melting point: > 250 °C

Cn1c(=O)c2ccc(-c3cn[nH]c3)cc2n2nc(-c3ccccc3)cc12 [Example 6, 4-Methyl-2-phenyl-8-(1H-pyrazol-4-yl)-4H-pyrazolo[1,5-a]quinazolin-5-one]
pIC50 [1, 2]: > 6.00 | melting point: > 250 °C

CC(C)n1c(=O)c2ccc(-c3ccc(N)nc3)cc2n2nc(-c3ccccc3)cc12.Cl [Example 47, 8-(6-Amino-pyridin-3-yl)-4-isopropyl-2-phenyl-4H-pyrazolo[1,5-a]quinazolin-5-one]
pIC50 [1, 2]: > 6.00 | melting point: 214 to 216 °C

Cl.Cn1c(=O)c2ccc(-c3cnc(N)nc3)cc2n2nc(-c3ccccc3)cc12 [Example 31, 8-(2-Amino-pyrimidin-5-yl)-4-methyl-2-phenyl-4H-pyrazolo[1,5-a]quinazolin-5-one]
pIC50 [1, 2]: > 6.00 | melting point: > 250 °C

CCn1cc(-c2cc3n(C)c(=O)c4ccc(-c5ccc(N)nc5)cc4n3n2)cn1.Cl [Example 131, 8-(6-Amino-pyridin-3-yl)-2-(1-ethyl-1H-pyrazol-4-yl)-4-methyl-4H-pyrazolo[1,5-a]quinazolin-5-one]
pIC50 [1, 2]: > 6.00 | melting point: 226 to 238 °C

CCCn1c(=O)c2ccc(-c3ccc(N)nc3)cc2n2nc(C3CCCC3)cc12.Cl [Example 71, 8-(6-Amino-pyridin-3-yl)-2-cyclopentyl-4-propyl-4H-pyrazolo[1,5-a]quinazolin-5-one]
pIC50 [1, 2]: > 6.00 | melting point: > 250 °C

Cn1c(=O)c2ccc(-c3cccc(C(=O)O)c3)cc2n2nc(-c3ccccc3)cc12 [Example 34, 3-(4-Methyl-5-oxo-2-phenyl-4,5-dihydro-pyrazolo[1,5-a]quinazolin-8-yl)-benzoic Acid]
pIC50 [1, 2]: > 6.00 | pIC50 (human mGluR3 (hmGluR3)): > 6.00 | melting point: > 250 °C

Cc1cc(-c2ccc3c(=O)n(CC(F)F)c4cc(C5CCOCC5)nn4c3c2)cc(C)n1.Cl [Example 102, 4-(2,2-Difluoro-ethyl)-8-(2,6-dimethyl-pyridin-4-yl)-2-(tetrahydro-pyran-4-yl)-4H-pyrazolo[1,5-a]quinazolin-5-one]
pIC50 [1, 2]: > 6.00 | melting point: > 250 °C

Cn1c(=O)c2ccc(-c3cc[nH]n3)cc2n2nc(-c3ccccc3)cc12 [Example 17, 4-Methyl-2-phenyl-8-(1H-pyrazol-3-yl)-4H-pyrazolo[1,5-a]quinazolin-5-one]
pIC50 [1, 2]: > 6.00 | melting point: 245 to 249 °C

CC(C)c1cc2n(C)c(=O)c3ccc(-c4ccc(N)nc4)cc3n2n1.Cl [Example 51, 8-(6-Amino-pyridin-3-yl)-2-isopropyl-4-methyl-4H-pyrazolo[1,5-a]quinazolin-5-one]
pIC50 [1, 2]: > 6.00 | melting point: 240 to 244 °C

Cn1c(=O)c2ccc(-c3ncco3)cc2n2nc(-c3ccccc3)cc12 [Example 20, 4-Methyl-8-oxazol-2-yl-2-phenyl-4H-pyrazolo[1,5-a]quinazolin-5-one]
pIC50 [1, 2]: > 6.00 | melting point: 228 to 231 °C
